Here are results for 3 molecules from US9060985B2, “Use of rosmarinic acid and the derivatives thereof to treat ciguatera” (priority 2009, dated 2015).

The term Ki denotes the dissociation constant of the complex between target and ligand, obtained from inhibition or displacement. Read a high Ki as lower affinity. A word on the LD50: it is the dose at which mortality reaches 50%.

For one series, the system named is ciguatoxins. To be noted: cited from earlier work.
The next series concerns symptoms of ciguatera. The following applies: cited from earlier work.
Series [1] has as its system neuroblastoma cell cultures. Nature of the series: Inhibition of the cytotoxicity caused by extracts of toxic loach or toxic giant clams on neuroblastoma cell cultures (MTT, with ouabain/veratridine). The series is classed as cell-based. As for the experimental part:
The sample of salmon-pink loach (Ref15), supplied by the Louis Malardé Institute, was collected at Mururoa (Tuamotu Archipelago, French Polynesia). The sample of giant clam (GPS59) was collected at Raivavae (Austral Islands, French Polynesia). The toxicity of these two samples was confirmed beforehand on mice, by a cytotoxicity assay on neuroblastomas and radioligand assays with P-CTX-3.
The samples are stored at 4° C. The rosmarinic acid was obtained from Sigma.
96-well plates are prepared with 50 000 cells in 100 μL of medium per well. The outer wells are not used, to avoid variations of response due to edge effects. The cells are incubated for 24 h at 37° C. with 5% CO2 to give them time to adhere.
A mixture of ouabain (cardiac glycoside involved in cellular permeability, inhibiting the Na/K pump) and veratridine (polycyclic alkaloid which leads to persistent activation of the sodium channels), designated O/V hereinafter, in which the two active substances are present respectively at a final concentration of 0.33 and 0.033 mM in 20 μl, is added to the wells.
Ouabain is an inhibitor of ATPase Na^+/K^+, and veratridine is an activator of the sodium channels. The combined action of these two products induces a raised intracellular level of sodium and causes a change in the morphology of the cells, which greatly reduces their viability. […]
All the plates have a standard control of culture medium (cells only) and a control with cells in the presence of the O/V mixture. Rosmarinic acid is tested alone with the O/V mixture to record effects of cytotoxicity or of cellular proliferation as well as any interferences of coloration due to strong concentrations of products, which can lead to false positives in spectrophotometer readings. […]
After incubation for 1.5 h, the formazan crystals that formed are dissolved with 150 μL of DMSO (dimethylsulfoxide) for each well. After homogenization, the plates are read with a UV plate reader at 490 nm. Then the data are transferred and processed using Excel® and analyzed with the GraphPad Prism® software (version 4).

Series [2] has as its system voltage-dependent sodium channels. The series is classed as binding, rat.
A further series has as its system mouse. The following applies: cited from earlier work.

In brackets after ≈: the same amount, converted by molar mass.

Take `C=C/C=C\CC[C@H]1O[C@H]2CC[C@@]3(C)O[C@H]4[C@@H](O)C[C@@]5(C)O[C@@H](CC/C=C(C)/C(C)=C/C=O)[C@@H](C)C[C@@H]5O[C@@H]4C[C@@H]3O[C@@H]2CC[C@@]1(C)O` [brevenal]: in the series on ciguatoxins, the “inhibition of neurotoxic effects induced by the ciguatoxins” value was “powerful inhibitor”.

For `OC[C@@H](O)[C@@H](O)[C@H](O)[C@H](O)CO` [mannitol, Mannitol], the “effect on neurological and muscular disorders” value in the series with symptoms of ciguatera (administered 48 to 72 hours after intoxication) was “capable of alleviating neurological and muscular disorders”. In the series on symptoms of ciguatera (blind clinical trials, mannitol and a saline solution, after 24 hours), the “effect on the symptoms of ciguatera” value is reported as “did not, however, show a beneficial effect”.

Turning to `O=C(/C=C/c1ccc(O)c(O)c1)O[C@H](Cc1ccc(O)c(O)c1)C(=O)O` [rosmarinic acid, (R)-a-[[3-(3,4-dihydroxyphenyl)-1-oxo-2E-propenyl]oxy]-3,4-dihydroxybenzenepropanoic acid], in series [1] (Neuroblastoma cell, neuroblastomas, toxic extracts, estimated, read-out: IC50 (concentration for 50% decrease in cellular mortality caused by ciguatoxins and associated toxins)), the IC50 is 500 to 1000 µg/mL (≈ 1390 to 2780 µM). The “concentration from which cellular viability is significantly increased” value in series [1] (toxic giant clam extract GPS59 at 100 μg/ml, O/V mixture) is at least 50 µg/mL. Also, the “effect on cellular viability of neuroblastomas (cytotoxicity of toxic giant clam extract)” value in series [1] (toxic giant clam extract GPS59 at 100 μg/ml, O/V mixture, rosmarinic acid 10 to 1000 μg/ml, 18 h, MTT) is on record as “protective effect”. Further, in series [2], the “IC50 (50% inhibition of interaction with [^3H]PbTx-3)” value was found to be 880 µg/mL, the Ki worked out at 1430 µM and the “measured radioactivity (replacement of tritiated brevetoxin on the sodium channels)” value is given as “decrease in the measured radioactivity”. Also, in the series on mouse (at 531 mg/kg i.v. in the mouse), the toxicity entry is reported as “does not display toxicity”. Further, the LD50 in the series with mouse (intravenously (i.v.) in the mouse) is 531 mg/kg.
